Test results reported in article PMC12030706, “Novel ^177Lu-Labeled [Thz^14]Bombesin(6–14) Derivatives with Low Pancreas Accumulation for Targeting Gastrin-Releasing Peptide Receptor-Expressing Cancer” (Pharmaceuticals, 2025).
Numbered stars: 1 amine (or outer) side, 2 acyl side, 3 side chain; on linkers, the order of the positions; unused ones are H or OH. Square brackets hold non-standard residues; d marks the D form. Peptide text beside a SMILES is read from it. * marks the point of attachment. DOTA = O=C(O)CN1CCN(CC(=O)O)CCN(CC(=O)*)CCN(CC(=O)O)CC1; NMeH = CN[C@@H](Cc1c[nH]cn1)C(=O)O; X1 = O=C(CN1CCC(N[*:1])CC1)[*:2]; Tle = CC(C)(C)[C@H](N)C(=O)O; Thz = O=C(O)[C@@H]1CSCN1

Key:
[1] = Ex vivo biodistribution in PC-3 tumor-bearing mice; conditions: mouse; for tissue uptake at 72 h: 72 h post-injection; for tissue uptake at 120 h: 120 h post-injection; for tissue uptake at 4 h: 4 h post-injection; for tissue uptake at 24 h: 24 h post-injection
Protocol: SPECT/CT imaging experiments were performed using an MILabs (Houten, The Netherlands) U-SPECT-II/CT scanner with a custom-made ultra-high-sensitivity big mouse collimator (2 mm pinhole size) following previously reported procedures. […] Male NOD.Cg-Rag1^tm1Mom Il2rg^tm1Wjl/SzJ (NRG) mice were used in these experiments because of their immunodeficient characteristics and excellent radiation tolerance. Mice were anaesthetized and subcutaneously implanted with 5 × 10^6 PC-3 prostate cancer cells (100 µL; 1:1 PBS/Matrigel) behind the left shoulder. SPECT/CT imaging and biodistribution studies were performed once the tumors reached a diameter of 5–8 mm, typically after approximately 4 weeks of growth.
For ex vivo biodistribution studies, the mice were injected with ~2–6 MBq of the radioligand. […] Blocking study was conducted at 1 h post-injection via co-injection of the radioligand with 100 μg of [D-Phe^6,Leu-NHEt^13,des-Met^14]Bombesin(6–14). Organs/tissues of interested were collected, weighed, and measured using an automatic gamma counter.

[2] = LogD7.4 measurement, shake flask method; type: physicochemical; conditions: n-octanol/DPBS pH 7.4, n = 3
Protocol: The logD7.4 values of all the ^177Lu-labeled GRPR-targeted ligands were measured using the shake flask method as previously reported. An aliquot (~2 MBq) of the radiolabeled product was added to a mixture of n-octanol (3 mL) and DPBS (3 mL, pH 7.4), followed by 1 min vortexing and 15 min centrifugation at 5000 rpm. Samples of the n-octanol (1 mL) and buffer (1 mL) layers were collected, and the activity was counted using a gamma counter. The logD7.4 values were calculated using the following equation: logD7.4=log10[countsn−octanolphase/countsbutterphase]

[3] = large intestine, Uptake in large intestine
[4] = small intestine, Uptake in small intestine

tissue uptake at 72 h ([1]; bone, Uptake in bone): 0.03 ± 0.01 %ID/g
tissue uptake at 120 h ([1]; bone, Uptake in bone): 0.02 ± 0.01 %ID/g
tissue uptake at 1 h ([1]; brain, 100 ug, Uptake in brain, 1 h blocked (co-injected with 100 µg [D-Phe6,Leu-NHEt13,des-Met14]Bombesin(6-14))): 0.03 ± 0.01 %ID/g
tissue uptake at 1 h ([1]; brain, Uptake in brain, 1 h post-injection): 0.03 ± 0.01 %ID/g
tissue uptake at 4 h ([1]; brain, Uptake in brain): 0.01 %ID/g
tissue uptake at 1 h ([1]; fat, 100 ug, Uptake in fat, 1 h blocked (co-injected with 100 µg [D-Phe6,Leu-NHEt13,des-Met14]Bombesin(6-14))): 0.14 ± 0.04 %ID/g
tissue uptake at 1 h ([1]; fat, Uptake in fat, 1 h post-injection): 0.11 ± 0.04 %ID/g
tissue uptake at 4 h ([1]; fat, Uptake in fat): 0.02 ± 0.01 %ID/g
tissue uptake at 24 h ([1]; fat, Uptake in fat): 0.01 %ID/g
tissue uptake at 72 h ([1]; fat, Uptake in fat): 0.01 %ID/g
tissue uptake at 1 h ([1]; heart, 100 ug, Uptake in heart, 1 h blocked (co-injected with 100 µg [D-Phe6,Leu-NHEt13,des-Met14]Bombesin(6-14))): 0.43 ± 0.14 %ID/g
tissue uptake at 1 h ([1]; heart, Uptake in heart, 1 h post-injection): 0.45 ± 0.06 %ID/g
tissue uptake at 24 h ([1]; heart, Uptake in heart): 0.02 ± 0.01 %ID/g
tissue uptake at 72 h ([1]; heart, Uptake in heart): 0.02 %ID/g
tissue uptake at 120 h ([1]; heart, Uptake in heart): 0.01 %ID/g
tissue uptake at 1 h ([1]; kidneys, 100 ug, Uptake in kidneys, 1 h blocked (co-injected with 100 µg [D-Phe6,Leu-NHEt13,des-Met14]Bombesin(6-14))): 7.44 ± 1.71 %ID/g
tissue uptake at 24 h ([1]; kidneys, Uptake in kidneys): 2.64 ± 0.94 %ID/g
tissue uptake at 72 h ([1]; kidneys, Uptake in kidneys): 0.6 ± 0.17 %ID/g
tissue uptake at 120 h ([1]; kidneys, Uptake in kidneys): 0.3 ± 0.07 %ID/g
tissue uptake at 1 h ([1]; large intestine, 100 ug, Uptake in large intestine, 1 h blocked (co-injected with 100 µg [D-Phe6,Leu-NHEt13,des-Met14]Bombesin(6-14))): 0.31 ± 0.08 %ID/g
tissue uptake at 4 h [1, 3]: 0.81 ± 0.21 %ID/g
tissue uptake at 24 h [1, 3]: 0.3 ± 0.12 %ID/g
tissue uptake at 72 h [1, 3]: 0.13 ± 0.05 %ID/g
tissue uptake at 120 h [1, 3]: 0.07 ± 0.04 %ID/g
tissue uptake at 1 h ([1]; liver, 100 ug, Uptake in liver, 1 h blocked (co-injected with 100 µg [D-Phe6,Leu-NHEt13,des-Met14]Bombesin(6-14))): 0.57 ± 0.15 %ID/g
tissue uptake at 4 h ([1]; liver, Uptake in liver): 0.33 ± 0.05 %ID/g
tissue uptake at 24 h ([1]; liver, Uptake in liver): 0.28 ± 0.07 %ID/g
tissue uptake at 120 h ([1]; liver, Uptake in liver): 0.08 ± 0.02 %ID/g
tissue uptake at 1 h ([1]; lungs, Uptake in lungs, 1 h post-injection): 1.53 ± 0.19 %ID/g
tissue uptake at 4 h ([1]; lungs, Uptake in lungs): 0.57 ± 0.21 %ID/g
tissue uptake at 24 h ([1]; lungs, Uptake in lungs): 0.16 ± 0.08 %ID/g
tissue uptake at 72 h ([1]; lungs, Uptake in lungs): 0.03 ± 0.01 %ID/g
tissue uptake at 120 h ([1]; lungs, Uptake in lungs): 0.03 ± 0.01 %ID/g
tissue uptake at 1 h ([1]; muscle, 100 ug, Uptake in muscle, 1 h blocked (co-injected with 100 µg [D-Phe6,Leu-NHEt13,des-Met14]Bombesin(6-14))): 0.23 ± 0.11 %ID/g
tissue uptake at 1 h ([1]; muscle, Uptake in muscle, 1 h post-injection): 0.22 ± 0.04 %ID/g
tissue uptake at 4 h ([1]; muscle, Uptake in muscle): 0.03 ± 0.01 %ID/g
tissue uptake at 24 h ([1]; muscle, Uptake in muscle): 0.01 %ID/g
tissue uptake at 72 h ([1]; muscle, Uptake in muscle): 0.01 %ID/g
tissue uptake at 1 h ([1]; pancreas, 100 ug, Uptake in pancreas, 1 h blocked (co-injected with 100 µg [D-Phe6,Leu-NHEt13,des-Met14]Bombesin(6-14))): 1.88 ± 0.42 %ID/g
tissue uptake at 4 h ([1]; pancreas, Uptake in pancreas): 1.57 ± 0.28 %ID/g
tissue uptake at 24 h ([1]; pancreas, Uptake in pancreas): ~1 %ID/g
tissue uptake at 72 h ([1]; pancreas, Uptake in pancreas): 0.68 ± 0.1 %ID/g
tissue uptake at 120 h ([1]; pancreas, Uptake in pancreas): 0.48 ± 0.08 %ID/g
tissue uptake at 1 h ([1]; small intestine, 100 ug, Uptake in small intestine, 1 h blocked (co-injected with 100 µg [D-Phe6,Leu-NHEt13,des-Met14]Bombesin(6-14))): 0.54 ± 0.1 %ID/g
tissue uptake at 1 h ([1]; small intestine, Uptake in small intestine, 1 h post-injection): 1.32 ± 0.42 %ID/g
tissue uptake at 4 h [1, 4]: 0.29 ± 0.08 %ID/g
tissue uptake at 24 h [1, 4]: 0.14 ± 0.03 %ID/g
tissue uptake at 72 h [1, 4]: 0.05 ± 0.01 %ID/g
tissue uptake at 120 h [1, 4]: 0.02 ± 0.02 %ID/g
tissue uptake at 1 h ([1]; spleen, 100 ug, Uptake in spleen, 1 h blocked (co-injected with 100 µg [D-Phe6,Leu-NHEt13,des-Met14]Bombesin(6-14))): 0.4 ± 0.04 %ID/g
tissue uptake at 24 h ([1]; spleen, Uptake in spleen): 0.14 ± 0.05 %ID/g
tissue uptake at 72 h ([1]; spleen, Uptake in spleen): 0.09 ± 0.02 %ID/g
tissue uptake at 120 h ([1]; spleen, Uptake in spleen): 0.09 ± 0.02 %ID/g
tissue uptake at 1 h ([1]; stomach, Uptake in stomach, 1 h post-injection): 0.6 ± 0.24 %ID/g
tissue uptake at 4 h ([1]; stomach, Uptake in stomach): 0.11 ± 0.04 %ID/g
tissue uptake at 24 h ([1]; stomach, Uptake in stomach): 0.16 ± 0.07 %ID/g
tissue uptake at 120 h ([1]; stomach, Uptake in stomach): 0.02 ± 0.01 %ID/g
tissue uptake at 1 h ([1]; testes, 100 ug, Uptake in testes, 1 h blocked (co-injected with 100 µg [D-Phe6,Leu-NHEt13,des-Met14]Bombesin(6-14))): 0.48 ± 0.16 %ID/g
tissue uptake at 4 h ([1]; testes, Uptake in testes): 0.05 ± 0.01 %ID/g
tissue uptake at 24 h ([1]; testes, Uptake in testes): 0.03 ± 0.01 %ID/g
tissue uptake at 72 h ([1]; testes, Uptake in testes): 0.02 %ID/g
tissue uptake at 120 h ([1]; testes, Uptake in testes): 0.01 %ID/g
logD [2]: -2.28 ± 0.14
SMILES: CC(C)C[C@H](NC(=O)[C@H](Cc1cnc[nH]1)N(C)C(=O)CNC(=O)[C@@H](NC(=O)[C@H](C)NC(=O)[C@H](Cc1c[nH]c2ccccc12)NC(=O)[C@H](Cc1c[nH]cn1)NC(=O)[C@@H](Cc1ccccc1)NC(=O)CN1CCC(NC(=O)CN2CCN(CC(=O)O)CCN(CC(=O)O)CCN(CC(=O)O)CC2)CC1)C(C)(C)C)C(=O)N1CSC[C@H]1C(N)=O [[^177Lu]Lu-LW01142, metal not drawn] ({DOTA}-[X1][dF]HWA[Tle]G[NMeH]L[Thz]-NH2)
